Data set [1] in a line: mouse liver microsome metabolic stability. Particulars: mouse liver microsomes; for T1/2 Ratio (+) ABT / T1/2 Ratio (−) ABT: normalized to propranolol; for T1/2 Ratio: normalization with respect to internal control (propranolol); for CLint scaled / half-life: mouse; for half-life: mean average, n = 2. As to the method: SGC-GAK-1 (1) was incubated with MLMs in the presence or absence of added NADPH, and the compound was quantified at various time points over an hour.
The metabolic stability of the 4-anilinoquinolines (8–13) were evaluated in MLMs (Table 1). Half-lives for metabolic clearance were normalized to propranolol in each experimental run to control for variations in the MLM preparations.

Data set [2] has as its target T1, STK16 (Homo sapiens, UniProt O75716). In words: NAK family TR-FRET binding displacement assay. Particulars: NAK family FRET screening; read-out: Binding displacement assay STK16 Ki.
The target in data set [3] is T2, GAK (Homo sapiens, UniProt O14976).
T2 sequence (O14976 1-1311): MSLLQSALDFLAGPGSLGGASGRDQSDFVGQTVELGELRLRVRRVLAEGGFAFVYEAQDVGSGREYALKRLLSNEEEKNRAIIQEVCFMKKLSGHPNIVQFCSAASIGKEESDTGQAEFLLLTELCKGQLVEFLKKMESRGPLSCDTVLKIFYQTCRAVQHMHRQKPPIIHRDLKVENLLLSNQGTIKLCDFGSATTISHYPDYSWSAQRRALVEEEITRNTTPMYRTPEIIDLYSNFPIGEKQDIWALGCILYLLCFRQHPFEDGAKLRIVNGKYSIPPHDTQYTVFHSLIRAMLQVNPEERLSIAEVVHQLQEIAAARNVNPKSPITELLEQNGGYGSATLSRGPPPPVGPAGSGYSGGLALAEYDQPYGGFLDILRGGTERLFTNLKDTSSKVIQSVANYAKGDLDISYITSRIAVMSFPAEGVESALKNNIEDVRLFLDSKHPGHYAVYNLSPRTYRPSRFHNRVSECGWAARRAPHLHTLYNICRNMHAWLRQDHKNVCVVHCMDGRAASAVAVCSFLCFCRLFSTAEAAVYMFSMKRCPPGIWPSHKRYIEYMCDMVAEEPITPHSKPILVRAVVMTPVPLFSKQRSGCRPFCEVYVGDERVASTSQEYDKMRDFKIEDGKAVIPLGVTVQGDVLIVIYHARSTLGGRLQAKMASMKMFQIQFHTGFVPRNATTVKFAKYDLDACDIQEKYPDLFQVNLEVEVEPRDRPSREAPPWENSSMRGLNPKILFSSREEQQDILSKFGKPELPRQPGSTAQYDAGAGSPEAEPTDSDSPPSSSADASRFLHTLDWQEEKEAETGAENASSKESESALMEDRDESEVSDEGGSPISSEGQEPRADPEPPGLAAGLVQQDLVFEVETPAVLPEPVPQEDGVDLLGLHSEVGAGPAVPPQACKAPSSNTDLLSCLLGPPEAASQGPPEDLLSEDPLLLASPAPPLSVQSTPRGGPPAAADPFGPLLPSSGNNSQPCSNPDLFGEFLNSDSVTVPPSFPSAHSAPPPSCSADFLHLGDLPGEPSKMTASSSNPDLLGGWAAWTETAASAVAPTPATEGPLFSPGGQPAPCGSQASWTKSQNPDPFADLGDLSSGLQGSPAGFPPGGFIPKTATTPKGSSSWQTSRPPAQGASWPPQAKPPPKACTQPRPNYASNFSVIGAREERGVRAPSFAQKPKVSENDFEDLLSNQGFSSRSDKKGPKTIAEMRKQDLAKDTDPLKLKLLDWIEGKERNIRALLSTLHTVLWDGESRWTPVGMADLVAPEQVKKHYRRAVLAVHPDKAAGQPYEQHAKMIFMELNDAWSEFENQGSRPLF
Description: TR-FRET ligand-binding displacement assay.

The nature of another data set: Kinetic Solubility. It counts as physicochemical. Conditions: pH 7.4, aqueous buffer, kinetic from dmso stock, PBS pH7.4 (100 µM).
Data set [4] deals with T3, AAK1 (Homo sapiens, UniProt Q2M2I8). Description: NAK family TR-FRET binding displacement assay. Particulars: NAK family FRET screening.
The next data set has as its target BMP2K (Homo sapiens, UniProt Q9NSY1). Description: NAK family TR-FRET binding displacement assay.
Data set [5] concerns the target T2, GAK. In words: KINOMEscan. It counts as binding. Also on record: purchased Eurofins DiscoverX (KINOMEscan). As to the method: (§1) KinomeScan Assay on 35 was performed as previously described at EuroFins DiscoverX (Fremont, CA, USA).
Data set [6] deals with T3, AAK1. In words: KINOMEscan. It counts as binding. Also on record: purchased Eurofins DiscoverX (KINOMEscan). Conditions: 35 at 1 µM; read-out: % inhibition. The protocol: as §1
For data set [7], the target named is T1, STK16. Description: KINOMEscan. The format is binding. Also on record: purchased Eurofins DiscoverX (KINOMEscan). Particulars: 35 at 1 µM; read-out: % inhibition. As to the method:
as §1

The target of data set [8] is T2, GAK. In words: live cell NanoBRET target engagement assay. Conditions: nanoBRET; mean average, n = 2. The format is cell-based.
Where [9] appears, read: Clint (mL/min/kg) (+) ABT, (+) ABT.
Setting [10] is: Clint (mL/min/kg) (−) ABT, (−) ABT.
[11] abbreviates: T1/2 (min), mouse liver microsomes with NADPH.
Where [12] appears, read: read-out: Kinetic Solubility µM.
Setting [13] is: read-out: Kinetic Solubility µg/mL.

Structures are written as SMILES. Read-outs that look alike come from different tables or passages of the source.

T3 sequence (Q2M2I8 whole entry): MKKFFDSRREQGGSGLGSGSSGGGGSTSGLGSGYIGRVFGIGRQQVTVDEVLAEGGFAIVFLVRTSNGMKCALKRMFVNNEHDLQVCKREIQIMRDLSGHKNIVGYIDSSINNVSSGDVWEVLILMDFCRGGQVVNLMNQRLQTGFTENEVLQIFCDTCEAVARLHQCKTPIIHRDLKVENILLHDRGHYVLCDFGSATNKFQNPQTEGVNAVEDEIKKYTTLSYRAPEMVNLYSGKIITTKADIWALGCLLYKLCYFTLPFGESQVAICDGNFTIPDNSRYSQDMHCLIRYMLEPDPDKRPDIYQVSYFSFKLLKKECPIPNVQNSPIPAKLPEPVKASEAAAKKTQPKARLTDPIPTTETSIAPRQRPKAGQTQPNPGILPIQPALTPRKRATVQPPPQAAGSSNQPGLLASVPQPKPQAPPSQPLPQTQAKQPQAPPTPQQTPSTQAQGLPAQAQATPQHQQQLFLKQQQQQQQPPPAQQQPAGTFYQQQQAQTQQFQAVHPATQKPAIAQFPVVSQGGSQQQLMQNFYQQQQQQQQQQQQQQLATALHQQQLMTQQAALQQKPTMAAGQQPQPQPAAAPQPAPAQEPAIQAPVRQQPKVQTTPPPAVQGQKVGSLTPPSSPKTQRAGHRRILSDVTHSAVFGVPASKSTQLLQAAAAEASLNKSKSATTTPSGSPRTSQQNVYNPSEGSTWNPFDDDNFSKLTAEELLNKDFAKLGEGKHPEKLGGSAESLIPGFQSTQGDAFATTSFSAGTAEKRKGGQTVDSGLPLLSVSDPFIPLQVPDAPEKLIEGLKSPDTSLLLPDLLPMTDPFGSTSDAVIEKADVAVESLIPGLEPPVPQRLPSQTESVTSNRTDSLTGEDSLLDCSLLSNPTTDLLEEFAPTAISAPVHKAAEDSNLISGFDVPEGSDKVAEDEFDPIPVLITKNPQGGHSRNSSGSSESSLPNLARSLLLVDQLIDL
T1 sequence (O75716 whole entry): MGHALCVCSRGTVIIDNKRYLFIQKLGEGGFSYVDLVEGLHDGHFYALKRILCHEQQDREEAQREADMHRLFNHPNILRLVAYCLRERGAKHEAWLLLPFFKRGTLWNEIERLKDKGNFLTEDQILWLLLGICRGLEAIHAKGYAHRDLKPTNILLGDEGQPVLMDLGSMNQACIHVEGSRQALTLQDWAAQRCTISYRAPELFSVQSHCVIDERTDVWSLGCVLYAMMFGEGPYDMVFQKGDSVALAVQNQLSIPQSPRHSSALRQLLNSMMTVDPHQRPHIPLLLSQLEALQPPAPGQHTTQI
BMP2K, sequence (Q9NSY1 whole entry): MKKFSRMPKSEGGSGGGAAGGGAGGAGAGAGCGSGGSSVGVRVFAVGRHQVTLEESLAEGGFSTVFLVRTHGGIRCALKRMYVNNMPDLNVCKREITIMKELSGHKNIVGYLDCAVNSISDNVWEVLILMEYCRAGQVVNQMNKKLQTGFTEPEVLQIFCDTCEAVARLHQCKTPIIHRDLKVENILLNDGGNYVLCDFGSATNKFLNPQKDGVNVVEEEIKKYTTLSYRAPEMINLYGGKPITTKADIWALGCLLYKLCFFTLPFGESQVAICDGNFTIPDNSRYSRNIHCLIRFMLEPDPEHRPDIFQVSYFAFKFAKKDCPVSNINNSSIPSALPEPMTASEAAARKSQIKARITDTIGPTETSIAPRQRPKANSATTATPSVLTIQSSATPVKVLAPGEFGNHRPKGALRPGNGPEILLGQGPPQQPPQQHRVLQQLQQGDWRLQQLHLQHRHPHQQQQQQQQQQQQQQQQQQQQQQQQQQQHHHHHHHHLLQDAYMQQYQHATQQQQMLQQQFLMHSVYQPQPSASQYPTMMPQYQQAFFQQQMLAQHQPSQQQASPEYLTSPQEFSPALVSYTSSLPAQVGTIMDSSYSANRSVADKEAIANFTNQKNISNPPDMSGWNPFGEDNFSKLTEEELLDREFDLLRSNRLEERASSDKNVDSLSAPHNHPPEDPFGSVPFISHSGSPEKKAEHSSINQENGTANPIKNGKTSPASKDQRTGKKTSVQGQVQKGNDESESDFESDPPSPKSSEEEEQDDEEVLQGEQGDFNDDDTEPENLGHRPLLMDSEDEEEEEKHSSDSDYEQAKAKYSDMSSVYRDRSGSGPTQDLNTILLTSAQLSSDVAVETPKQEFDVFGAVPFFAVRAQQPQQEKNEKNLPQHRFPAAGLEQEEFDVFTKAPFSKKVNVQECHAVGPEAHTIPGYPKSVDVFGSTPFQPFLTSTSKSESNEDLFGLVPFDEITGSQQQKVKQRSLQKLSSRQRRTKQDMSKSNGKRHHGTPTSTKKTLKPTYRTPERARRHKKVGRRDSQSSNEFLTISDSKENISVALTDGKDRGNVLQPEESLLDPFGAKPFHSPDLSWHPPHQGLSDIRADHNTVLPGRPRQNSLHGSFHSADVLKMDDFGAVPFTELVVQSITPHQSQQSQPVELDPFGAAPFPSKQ

Consider `COc1cc2nccc(Nc3cc(OC)c(OC)c(OC)c3)c2cc1OC` [Compound 8], for which, in data set [1] ((+) ABT), the “T1/2 Ratio (+) ABT” value is reported as 14.7. Further, the “T1/2 Ratio (−) ABT” value in data set [1] ((−) ABT) came to 1.3. For the same compound, the “T1/2 Ratio” value in data set [1] is on record as 1.6. Moreover, the intrinsic clearance (CLint scaled) in [1] (setting [9]) was under 28 mL/min/kg; in data set [1] (setting [10]), 320 mL/min/kg. Moreover, the half-life in data set [1] (T1/2 (min) (+) ABT, (+) ABT) is over 200 min; in data set [1] (T1/2 (min) (−) ABT, (−) ABT), 18 min; in data set [1] (setting [11]) it was 12.2 min. Moreover, the Ki on STK16 [2] is over 100 µM; on GAK [3] (NAK family FRET screening, read-out: Binding displacement assay GAK Ki) it was 0.54 nM; at AAK1 [4], 28 µM; at BMP2K it was 63 µM. Further, the solubility kinetic was 128 µM in “Kinetic Solubility” (setting [12]) and 47.6 µg/mL in the data set “Kinetic Solubility” (setting [13]).
As for `Brc1ccc2nccc(Nc3ccc4cn[nH]c4c3)c2c1` [Compound 35, 6-Bromo-N-(1H-indazol-6-yl)quinolin-4-amine], the activity at 1 µM on GAK [5] (35 at 1 µM, read-out: % inhibition) stood at 10%; on AAK1 [6], 100%; at STK16 [7] it was 98%. Besides, on GAK [5] (KinomeScan, screened at 1 μM, read-out: kinases inhibited at 1 μM: GAK), the inhibition at 1 µM stood at 90%. Besides, the midpoint of inhibition against GAK [8], the IC50, lay at 1400 nM. For the same compound, the “T1/2 ratios fold higher than 9” value in data set [1] is at least 2 fold. Besides, in data set [1] ((+) ABT), the “T1/2 Ratio (+) ABT” value stood at 17.5. The “T1/2 Ratio (−) ABT” value in [1] ((−) ABT) is recorded as 9.8. Also, the “T1/2 Ratio” value in [1] came out at 9.8. For the same compound, the CLint scaled in [1] (setting [9]) amounted to 35 mL/min/kg; in data set [1] (setting [10]), 120 mL/min/kg. Also, the half-life in data set [1] (T1/2 (min) (+) ABT, (+) ABT) stood at 170 min; in data set [1] (T1/2 (min) (−) ABT, (−) ABT) it was 46 min; in data set [1] (setting [11]) it was 45.6 min. The Ki on STK16 [2] came out at 7.4 µM; on GAK [3] (TR-FRET assay, read-out: Biochemical GAK Ki), 20 nM; at AAK1 [4], 2.1 µM; on BMP2K, 6.5 µM. Also, the solubility kinetic in “Kinetic Solubility” (setting [12]) was 12.3 µM; in “Kinetic Solubility” (setting [13]), 4.2 µg/mL.
